Results published in patent US8470765B2, “Polypeptides and antibacterial or antiseptic use of same” (AnGes MG, Inc., priority 2009, dated 2013).
Converted amounts (≈) assume the structure as drawn. Where two headings read alike, the source gives them in different places. No end group written: not given here.

Columns and labels:
[1] = test system: Staphylococcus aureus ATCC29213; assay: microbe, parasite or virus in culture; type: cell-based; conditions: for MIC: Staphylococcus aureus, ATCC29213, read-out: MIC Staphylococcus aureus, Table 4, two tests, first/second value where not identical; for MIC Staphylococcus aureus: ATCC29213
In short: (§1)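 MIC values were read visually as the minimum concentration preventing growth after 16 to 24 hours at 37° C. Cultures in Mueller-Hinton broth held about 10^5 CFU/mL, and peptides were tested in MHB starting from a 128 μg/mL solution.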

[2] = test system: Enterobacter aerogenes JCM 1235; assay: microbe, parasite or virus in culture; type: cell-based; conditions: for MIC: Klebsiella aerogenes, JCM1235
In short: as §1

[3] = test system: Pseudomonas aeruginosa ATCC 27853; assay: microbe, parasite or virus in culture; type: cell-based; conditions: for MIC: Pseudomonas aeruginosa, ATCC27853, read-out: MIC Pseudomonas aeruginosa
In short: as §1

[4] = test system: Staphylococcus aureus ATCC29213; assay: ATP Assay (viability at 3 hours), Table 6; type: cell-based; conditions: for viability at 10 µg/mL: ATCC29213, 3 h, read-out: Staphylococcus aureus ATP (viability, relative value to negative control); for Staphylococcus aureus ATP (viability, relative value to negative control): 3 h, 5 μg/mL
In short: (§2)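 Log-phase bacteria at about 10^5 CFU/mL final in Mueller-Hinton broth were exposed 3 h at 37 °C to peptide (solution prepared at 10 μg/mL before 1:1 mixing with inoculum). ATP (BacTiter-Glo luminescence) relative to untreated wells defined viability; two independent experiments.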

[5] = test system: Escherichia coli ATCC 25922; assay: ATP Assay (viability at 3 hours), Table 6; type: cell-based; conditions: for viability at 10 µg/mL: ATCC25922, 3 h, read-out: Escherichia coli ATP (viability, relative value to negative control); for Escherichia coli ATP (viability, relative value to negative control): 3 h, 5 μg/mL
In short: as §2

[6] = test system: Pseudomonas aeruginosa ATCC 27853; assay: ATP Assay (viability at 3 hours), Table 6; type: cell-based; conditions: for viability at 10 µg/mL: ATCC27853, 3 h, read-out: Pseudomonas aeruginosa ATP (viability, relative value to negative control); for Pseudomonas aeruginosa ATP (viability, relative value to negative control): 3 h, 5 μg/mL
In short: as §2

[7] = test system: Trichophyton mentagrophytes NBRC6124; conditions: NBRC6124
[8] = test system: Micrococcus luteus NBRC13867
[9] = test system: Salmonella typhimurium JCM1652
[10] = test system: Bacillus subtilis NBRC3134
[11] = test system: Bacteroides fragilis JCM 11019; conditions: JCM 11019
[12] = test system: Salmonella enteritidis IID 604
[13] = test system: Streptococcus pyogenes JCM5674
[14] = test system: Rhizopus oryzae NBRC 31005
[15] = test system: Alternaria alternata JCM5800; conditions: JCM5800
[16] = test system: Fusobacterium nucleatum JCM 11025
[17] = test system: Aspergillus niger NBRC 9455
[18] = test system: Enterobacter cloacae JCM 1232; type: cell-based
Protocol: Bacteria (Escherichia coli ATCC 25922, Pseudomonas aeruginosa ATCC 27853, Staphylococcus aureus ATCC29213, Klebsiella pneumoniae JCM 1662, Enterobacter cloacae JCM 1232, Enterobacter aerogenes JCM 1235 and Staphylococcus epidermidis JCM 2414) were inoculated to Mueller-Hinton broth: MHB or LB medium, and cultured at a temperature and period suited for each strain. From the thus obtained colonies, each strain was inoculated to a fresh liquid medium and cultured for 16 to 20 hours. Then an aliquot having a volume (10 to 50 appropriate to each strain was inoculated to a fresh liquid medium and cultured for 4 to 6 hours, followed by the measurement of the absorbance at 600 nm. After comparing the turbidity with McFarland #0.5, the resultant was diluted with a medium. Each strain was added to about 10^5 CFU/mL (final concentration). Each of the peptide solutions to be tested was diluted with MHB to obtain a solution of 128 μg/mL. […] As controls, tobramycin (TOB: aminoglucoside antibiotic), oxacillin (OX:β-lactam antibiotic), meropenem (MEPM: carbapenem antibiotic) and ciprofloxacin (new quinolone antibiotic) were used. […] To a 96-well microtiter plate, 0.1 mL of the inoculation solution and 0.1 mL of the peptide- or positive control-containing medium having the respective concentration were added, and cultured at 37° C. for 16 to 24 hours (or a time period suited for the growth of the respective strain). The well not containing the sample was used as a negative control. After the culturing, the growth was visually observed, and the minimum concentration at which the growth was inhibited was defined as the minimum growth inhibition concentration (MIC). The medium used in this test for bacteria was Mueller-Hinton broth. Independent experiments were carried out twice or more for each strain.

[19] = test system: Cryptococcus neoformans IFM 46660
[20] = Table 4, two tests, first/second value where not identical

| Compound | MIC Trichophyton mentagrophytes [7] | MIC Micrococcus luteus [8] | MIC Staphylococcus aureus [1] | MIC Pseudomonas aeruginosa ([3]; ATCC 27853) | Staphylococcus aureus ATP (viability, relative value to negative control) [4] | Escherichia coli ATP (viability, relative value to negative control) [5] | Pseudomonas aeruginosa ATP (viability, relative value to negative control) [6] | MIC Bacillus subtilis ([10]; NBRC3134) | MIC Bacteroides fragilis [11] | MIC Fusarium solani (Fusarium solani JCM11383; [20]) | MIC Streptococcus pyogenes [13] | MIC Rhizopus oryzae ([14]; NBRC 31005) | MIC Alternaria alternata [15] | MIC Fusobacterium nucleatum ([16]; JCM 11025) | MIC Candida krusei (Candida krusei NBRC1395; NBRC1395) | MIC Aspergillus niger [17, 20] | MIC Enterobacter cloacae [18, 20] | MIC Cryptococcus neoformans ([19]; IFM 46660) | MIC Enterobacter aerogenes [2, 20] | MIC Salmonella Enteritidis ([12]; IID 604) | other results |
| --- | --- | --- | --- | --- | --- | --- | --- | --- | --- | --- | --- | --- | --- | --- | --- | --- | --- | --- | --- | --- | --- |
| C[C@@H](O)[C@H]1C(=O)N2C(C(=O)O)=C(S[C@@H]3CN[C@H](C(=O)N(C)C)C3)[C@H](C)[C@H]12 [meropenem, reference compound] |  |  |  |  |  |  |  |  |  |  |  |  |  |  |  |  |  |  |  |  | MIC [1]: 0.03 to 0.12 µg/mL (≈ 0.0782 to 0.313 µM); MIC [2, 20]: < 4000 µg/mL; MIC [3, 20]: 0.25 to 1 µg/mL (≈ 0.652 to 2.61 µM); viability at 10 µg/mL [4]: 15.7%; viability at 10 µg/mL [5]: 15.3%; viability at 10 µg/mL [6]: 16.1% |
| NC[C@H]1O[C@H](O[C@H]2[C@H](O)[C@@H](O[C@H]3O[C@H](CO)[C@@H](O)[C@H](N)[C@H]3O)[C@H](N)C[C@@H]2N)[C@H](N)C[C@@H]1O [tobramycin, reference compound] |  |  |  |  |  |  |  |  |  |  |  |  |  |  |  |  |  |  |  |  | MIC [1]: 0.12 to 1 µg/mL (≈ 0.257 to 2.14 µM); MIC [2, 20]: < 4000 µg/mL; MIC [3, 20]: 0.25 to 1 µg/mL (≈ 0.535 to 2.14 µM); viability at 10 µg/mL [4]: 6.7%; viability at 10 µg/mL [5]: 74.3%; viability at 10 µg/mL [6]: 1.2% |
| GRLKRMGERLKRKIQKWIRW-NH2 [SRP-15] | 32 µg/mL | 4 µg/mL | 16 µg/mL | 16 µg/mL | 0.3 | 0.5 | 1.6 | 4 µg/mL | 16 µg/mL | 16/32 | 16 µg/mL | 16 µg/mL | 64 µg/mL | 4 µg/mL | 16 µg/mL | 8/16 | 16/32 | 2 µg/mL |  |  | MIC Enterobacter aerogenes ([2]; JCM 1235): 16 µg/mL; MIC Salmonella Typhimurium [9, 20]: 8/4; MIC Salmonella Enteritidis [12, 20]: 8/16 |
| GRLKRMGKRLKRKIQKWARW-NH2 [SRP-14] | 16 µg/mL | 4 µg/mL | 16 µg/mL | 16 µg/mL | 0.3 | 1.2 | 1.0 | 4 µg/mL | 128 µg/mL |  | 16 µg/mL | 8 µg/mL | 32 µg/mL | 4 µg/mL | 32 µg/mL | 4/8 | 32/128 | 1 µg/mL | 16/32 | 4 µg/mL | MIC Salmonella Typhimurium [9, 20]: 4/8; MIC Fusarium solani (Fusarium solani JCM11383; JCM11383): 4 µg/mL |
| IFLHRLKRMRKRLKRKLRLW-OH [SRP-7] | 32 µg/mL | 2 µg/mL | 32 µg/mL |  | 0.2 | 1.6 | 1.0 | 4 µg/mL | 128 µg/mL |  | 32 µg/mL |  | 32 µg/mL | 4 µg/mL |  | 8/16 | 16/128 | 2 µg/mL | 16/64 | 4 µg/mL | MIC Pseudomonas aeruginosa [3, 20]: 8/16; MIC Salmonella Typhimurium ([9]; JCM1652): 4 µg/mL; MIC Fusarium solani (Fusarium solani JCM11383; JCM11383): 8 µg/mL; MIC Rhizopus oryzae [14, 20]: 8/16; MIC Candida krusei (Candida krusei NBRC1395; [20]): 64/32 |
| KLIFLHRLKRELRKRLKRKLR-NH2 [SRP-13] | 32 µg/mL | 2 µg/mL | 32 µg/mL | 16 µg/mL | 2.0 | 2.2 | 2.2 | 4 µg/mL | 64 µg/mL | 4/8 | 32 µg/mL | 8 µg/mL | 64 µg/mL | 4 µg/mL | 32 µg/mL |  | 32/64 | 2 µg/mL | 16/64 | 4 µg/mL | MIC Salmonella Typhimurium ([9]; JCM1652): 4 µg/mL; MIC Aspergillus niger ([17]; NBRC 9455): 16 µg/mL |
| KLIFLRELRRLRKRLKRKLR-NH2 [SRP-16] | 32 µg/mL | 2 µg/mL | 16 µg/mL | 16 µg/mL | 0.4 | 0.9 | 1.0 |  | 32 µg/mL | 4/8 | 32 µg/mL |  | 64 µg/mL | 128 µg/mL | 32 µg/mL | 8/16 |  | 2 µg/mL | 16/32 | 4 µg/mL | MIC Salmonella Typhimurium ([9]; JCM1652): 8 µg/mL; MIC Bacillus subtilis [10, 20]: 8/4; MIC Rhizopus oryzae [14, 20]: 8/16; MIC Enterobacter cloacae ([18]; JCM 1232): 64 µg/mL |
| KNLRRIIRKIIHIIKKYG-NH2 [Ovispirin-1, reference compound] | 32 µg/mL | 2 µg/mL | 16 µg/mL |  |  |  |  | 2 µg/mL | 1 µg/mL | 4/8 | 32 µg/mL | > 128 µg/mL | 64 µg/mL |  | 16 µg/mL |  | 32/64 |  | 16/32 | 16 µg/mL | MIC Pseudomonas aeruginosa [3, 20]: 16/32; MIC Salmonella Typhimurium ([9]; JCM1652): 16 µg/mL; MIC Fusobacterium nucleatum [16, 20]: 2/4; MIC Aspergillus niger ([17]; NBRC 9455): 32 µg/mL; MIC Cryptococcus neoformans [19, 20]: 2/4 |
| LIFLHRLKRMRKRLKRKLRL-NH2 [SRP-12] |  |  | 16 µg/mL |  | 0.2 | 6.5 | 1.0 |  |  |  |  | 8 µg/mL |  |  |  | 8/16 | 128< mg/mL | 1 µg/mL | 32/64 |  | MIC Pseudomonas aeruginosa [3, 20]: 16/32 |
